Our source for the inhibition values is patent US9255094B2, “Pyrido[4,3-B]indoles and methods of use” (Medivation Technologies, Inc., priority 2009, dated 2016).

Assay [1] addresses T1, human recombinant adrenergic α2A receptor (Homo sapiens, UniProt P08913).
T1 construct: expressed in transfected cells; host or cells: insect Sf9 cells
T1 sequence (P08913 1-465): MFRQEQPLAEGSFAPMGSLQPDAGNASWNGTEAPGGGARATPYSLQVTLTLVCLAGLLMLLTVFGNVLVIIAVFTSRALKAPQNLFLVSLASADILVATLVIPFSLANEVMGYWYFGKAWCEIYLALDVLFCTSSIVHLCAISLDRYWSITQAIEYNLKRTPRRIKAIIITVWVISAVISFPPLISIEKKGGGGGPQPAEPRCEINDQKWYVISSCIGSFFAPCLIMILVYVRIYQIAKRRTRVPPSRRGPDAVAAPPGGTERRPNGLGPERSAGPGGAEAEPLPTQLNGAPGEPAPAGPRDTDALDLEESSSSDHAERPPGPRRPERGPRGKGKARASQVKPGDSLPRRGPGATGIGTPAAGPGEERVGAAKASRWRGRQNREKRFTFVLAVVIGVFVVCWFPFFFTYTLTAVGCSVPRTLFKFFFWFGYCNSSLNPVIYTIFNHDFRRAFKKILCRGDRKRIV
Description: Adrenergic α2A radioligand binding assay ([3H]MK-912). The note with it: compound at 0.1 μM; 1 nM [3H]MK-912; insect Sf9 cells; read-out: Percent Inhibition of ligand binding, Adrenergic (0.1 μM) a2A. As to the method: To evaluate in radioligand binding assays the activity of compounds of the invention, human recombinant adrenergic α2A receptor expressed in insect Sf9 cells (Uhlen S et al. J. Pharmacol. Exp. Ther. 271:1558, 1994) in a modified Tris-HCl buffer (50 mM Tris-HCl, pH 7.4, 12.5 mM MgCl2, 2 mM EDTA) was used. Compounds of invention were incubated with 1 nM [^3H]MK-912 for 60 min at 25° C. MK912 is (2S-trans)-1,3,4,5′,6,6′,7,12b-octahydro-1′,3′-dimethyl-spiro[2H-benzofuro[2,3-a]quinolizine-2,4′(1′H)-pyrimidin]-2′(3′H)-one hydrochloride Non-specific binding was estimated in the presence of 10 μM WB-4101 (2-(2,6-dimethoxyphenoxyethyl)aminomethyl-1,4-benzodioxane hydrochloride). Receptor proteins were filtered and washed, the filters were then counted to determine [^3H]MK-912 specifically bound.

Assay [2] deals with T2, rat adrenergic α1A receptor (Rattus norvegicus, UniProt P43140).
T2 construct: from tissue; host or cells: Wistar Rat submaxillary glands
T2 sequence (P43140 1-466): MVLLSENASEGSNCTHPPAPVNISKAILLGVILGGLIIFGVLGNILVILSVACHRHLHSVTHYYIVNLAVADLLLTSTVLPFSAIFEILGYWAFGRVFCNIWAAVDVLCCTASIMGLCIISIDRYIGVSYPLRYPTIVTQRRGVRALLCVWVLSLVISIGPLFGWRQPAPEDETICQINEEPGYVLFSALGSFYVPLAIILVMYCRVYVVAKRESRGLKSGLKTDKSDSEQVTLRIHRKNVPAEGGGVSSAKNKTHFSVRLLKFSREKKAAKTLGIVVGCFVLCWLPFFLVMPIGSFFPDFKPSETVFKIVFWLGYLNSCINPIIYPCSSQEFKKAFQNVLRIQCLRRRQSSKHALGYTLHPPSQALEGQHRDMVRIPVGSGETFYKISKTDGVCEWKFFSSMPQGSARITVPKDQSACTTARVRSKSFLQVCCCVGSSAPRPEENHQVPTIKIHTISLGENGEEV
The assay can be described thus: Adrenergic α1A radioligand binding assay ([3H]Prozosin). The note with it: compound at 0.1 μM; 0.25 nM [3H]Prozosin; Wistar Rat submaxillary glands; read-out: Percent Inhibition of ligand binding, Adrenergic (0.1 μM) a1A. As for the experimental part:
To evaluate in radioligand binding assays the activity of compounds of the invention, rat adrenergic α1A receptor obtained from Wistar Rat submaxillary glands (Michel, A. D. et al., Br. J. Pharmacol. 98:883, 1989) in a modified Tris-HCl buffer (50 mM Tris-HCl buffer, pH 7.4, 0.5 mM EDTA) is used. Compounds of the invention are incubated with 0.25 nM [^3H]Prozosin for 60 min at 25° C. Non-specific binding is estimated in the presence of 10 μM phentolamine. Receptor proteins are filtered and washed, the filters are then counted to determine [^3H]Prozosin specifically bound. Compounds of the invention are screened at 1 μM or lower, using 1% DMSO as vehicle. Compounds of the invention are tested in this biochemical assay and percent inhibition of specific binding is determined.

The target in assay [3] is T3, human recombinant serotonin (5-Hydroxytryptamine) 5-HT2A receptor (Homo sapiens, UniProt P28223).
T3 construct: expressed in transfected cells; host or cells: Chinese hamster ovary (CHO-K1) cells
The assay can be described thus: Serotonin 5-HT2A radioligand binding assay ([3H]Ketanserin). The note with it: 0.5 nM [3H]Ketanserin, CHO-K1 cells; for inhibition at 0.1 µM: compound at 0.1 μM, read-out: Percent Inhibition of ligand binding, Serotonin (0.1 μM) 5-HT2A. As to the method: Compounds of the invention were incubated with 0.5 nM [^3H]Ketanserin for 60 min at 25° C. Non-specific binding was estimated in the presence of 1 μM Mianserin. Receptor proteins were filtered and washed, the filters were then counted to determine [^3H]Ketanserin specifically bound. Compounds were screened at 1 μM or lower, using 1% DMSO as vehicle. Biochemical assay results are presented as the percent inhibition of specific binding in Table 4.

Assay [4] deals with T4, human recombinant adrenergic α1D receptor (Homo sapiens, UniProt P25100).
T4 construct: expressed in transfected cells; host or cells: human embryonic kidney (HEK-293) cells
T4 sequence (P25100 1-572): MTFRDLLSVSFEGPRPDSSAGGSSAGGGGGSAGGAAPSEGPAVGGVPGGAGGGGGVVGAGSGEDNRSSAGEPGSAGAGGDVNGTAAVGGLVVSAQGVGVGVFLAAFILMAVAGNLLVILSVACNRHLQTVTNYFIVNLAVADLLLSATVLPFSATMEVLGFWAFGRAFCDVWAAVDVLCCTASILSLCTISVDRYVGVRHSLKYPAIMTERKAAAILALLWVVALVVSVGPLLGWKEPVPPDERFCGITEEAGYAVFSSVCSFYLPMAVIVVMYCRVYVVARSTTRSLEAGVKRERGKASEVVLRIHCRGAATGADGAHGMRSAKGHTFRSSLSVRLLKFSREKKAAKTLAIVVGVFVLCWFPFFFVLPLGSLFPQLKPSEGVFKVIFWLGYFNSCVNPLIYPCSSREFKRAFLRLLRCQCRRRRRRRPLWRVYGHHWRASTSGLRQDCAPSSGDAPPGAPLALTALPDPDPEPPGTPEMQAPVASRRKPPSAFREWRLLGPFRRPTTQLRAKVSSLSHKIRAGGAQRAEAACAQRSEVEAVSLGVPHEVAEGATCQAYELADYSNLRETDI
The assay can be described thus: Adrenergic α1D radioligand binding assay ([3H]Prozosin). As to conditions: compound at 0.1 μM; 0.6 nM [3H]Prozosin; HEK-293 cells; read-out: Percent Inhibition of ligand binding, Adrenergic (0.1 μM) a1D. As for the experimental part: Compounds of invention were incubated with 0.6 nM [^3H]Prozosin for 60 min at 25° C. Non-specific binding was estimated in the presence of 10 μM phentolamine Receptor proteins were filtered and washed, the filters were then counted to determine [^3H]Prozosin specifically bound.

T3 sequence (P28223 whole entry): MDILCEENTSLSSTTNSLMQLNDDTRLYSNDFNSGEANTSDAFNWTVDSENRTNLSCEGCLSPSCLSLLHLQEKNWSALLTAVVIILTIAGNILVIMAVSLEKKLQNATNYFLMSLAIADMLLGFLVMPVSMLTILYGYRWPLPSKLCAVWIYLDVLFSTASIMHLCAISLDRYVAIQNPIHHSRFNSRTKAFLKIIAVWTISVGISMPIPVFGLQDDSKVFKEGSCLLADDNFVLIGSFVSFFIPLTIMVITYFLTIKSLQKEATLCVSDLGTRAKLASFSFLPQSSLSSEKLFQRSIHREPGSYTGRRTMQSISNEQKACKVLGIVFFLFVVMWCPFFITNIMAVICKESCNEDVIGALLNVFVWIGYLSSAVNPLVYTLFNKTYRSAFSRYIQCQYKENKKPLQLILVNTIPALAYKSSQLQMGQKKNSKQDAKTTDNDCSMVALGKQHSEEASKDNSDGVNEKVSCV

What is called inhibition is the drop in the measured response relative to a control, in per cent. On to `CN1CCc2c(c3cc(Cl)c(Cl)cc3n2CC(C)(O)c2ccncc2)C1` (stereo not drawn) [Compound 1-17, 1-(7,8-dichloro-2-methyl-3,4-dihydro-1H-pyrido[4,3-b]indol-5(2H)-yl)-2-(pyridin-4-yl)propan-2-ol], for which the inhibition at 0.1 µM in assay [1] was 64%; in assay [2], 0%. For the same compound, in assay [3] (compound at 1 μM, read-out: Percent Inhibition of ligand binding, Serotonin (1 μM) 5-HT2A), the inhibition at 1 µM turned out to be 96%.

Consider `COc1ccc([C@](C)(O)Cn2c3c(c4cc(C)ccc42)CN(C)CC3)cc1` [Compound 1-20, (S)-1-(2,8-Dimethyl-3,4-dihydro-1H-pyrido[4,3-b]indol-5(2H)-yl)-2-(4-methoxyphenyl)propan-2-ol], for which the inhibition at 0.1 µM is 22% in assay [4], 57% in assay [1], 13% in assay [2] and 91% in assay [3].

As to `CC[C@](O)(Cn1c2c(c3cc(C)ccc31)CN(C)CC2)c1ccc(F)cc1` [Compound 1-60, (R)-1-(2,8-Dimethyl-3,4-dihydro-1H-pyrido[4,3-b]indol-5(2H)-yl)-2-(4-fluorophenyl)butan-2-ol], the inhibition at 0.1 µM was 13% in assay [4], 3% in assay [1], -8% in assay [2] and 67% in assay [3].

For `CCCC[C@](O)(Cn1c2c(c3cc(Cl)ccc31)CN(C)CC2)c1ccc(F)cc1` [Compound 1-61, (R)-1-(8-Chloro-2-methyl-3,4-dihydro-1H-pyrido[4,3-b]indol-5(2H)-yl)-2-(4-fluorophenyl)hexan-2-ol], the inhibition at 0.1 µM was 14% in assay [4], -7% in assay [1], 1% in assay [2] and 81% in assay [3].

For `CC[C@@](O)(Cn1c2c(c3cc(C)ccc31)CN(C)CC2)c1ccncc1` [Compound 1-62, (S)-1-(2,8-Dimethyl-3,4-dihydro-1H-pyrido[4,3-b]indol-5(2H)-yl)-2-(pyridine-4-yl)butan-2-ol], the inhibition at 0.1 µM in assay [4] was 6%; in assay [1] it was 10%; in assay [2], 10%; in assay [3] it was 43%.

For `CC[C@](O)(Cn1c2c(c3cc(C)ccc31)CN(C)CC2)c1ccncc1` [Compound 1-63, (R)-1-(2,8-Dimethyl-3,4-dihydro-1H-pyrido[4,3-b]indol-5(2H)-yl)-2-(pyridine-4-yl)butan-2-ol], the inhibition at 0.1 µM was -13% in assay [4], 12% in assay [1], 8% in assay [2] and 21% in assay [3].

For the compound `Cc1ccc2c(c1)c1c(n2CCc2ccc(C)nc2)CCN(CC(F)(F)F)C1` [Compound 1-65, 8-methyl-5-(2-(6-methylpyridin-3-yl)ethyl)-2-(2,2,2-trifluoroethyl)-2,3,4,5-tetrahydro-1H-pyrido[4,3-b]indole], the inhibition at 0.1 µM was 4% in assay [4], 6% in assay [1], -10% in assay [2] and -10% in assay [3].

As to `CC[C@@](O)(Cn1c2c(c3cc(C)ccc31)CN(C)CC2)c1ccc(F)cc1` [Compound 1-66, (S)-1-(2,8-dimethyl-3,4-dihydro-1H-pyrido[4,3-b]indol-5(2H)-yl)-2-(4-fluorophenyl)butan-2-ol], the inhibition at 0.1 µM is 29% in assay [1], -1% in assay [2] and 77% in assay [3].
